# Assay results reported in patent US20240343694A1, “PYRIMIDINE DERIVATIVE, METHOD FOR PREPARING SAME, AND PHARMACEUTICAL COMPOSITION FOR PREVENTING OR TREATING CANCER COMPRISING SAME AS ACTIVE INGREDIENT” (KOREA RESERARCH INSTITUTE OF CHEMICAL TECHNOLOGY, priority 2021, published 2024).
# How the values were obtained:
# Format in all cases: biochemical
# Settings in all cases: recombinant enzyme, 37° C. for 2 hours
# [1] = molecular target: EGFR del19 (Homo sapiens (Human), UniProt P00533, DEL746-750); test: HTRF inhibitory activity against EGFR mutant enzyme (EGFR del19)
# Chain of EGFR del19 (P00533 other isoform, or with tags, fused parts or gaps del 1-668/del 746-750 limits assumed): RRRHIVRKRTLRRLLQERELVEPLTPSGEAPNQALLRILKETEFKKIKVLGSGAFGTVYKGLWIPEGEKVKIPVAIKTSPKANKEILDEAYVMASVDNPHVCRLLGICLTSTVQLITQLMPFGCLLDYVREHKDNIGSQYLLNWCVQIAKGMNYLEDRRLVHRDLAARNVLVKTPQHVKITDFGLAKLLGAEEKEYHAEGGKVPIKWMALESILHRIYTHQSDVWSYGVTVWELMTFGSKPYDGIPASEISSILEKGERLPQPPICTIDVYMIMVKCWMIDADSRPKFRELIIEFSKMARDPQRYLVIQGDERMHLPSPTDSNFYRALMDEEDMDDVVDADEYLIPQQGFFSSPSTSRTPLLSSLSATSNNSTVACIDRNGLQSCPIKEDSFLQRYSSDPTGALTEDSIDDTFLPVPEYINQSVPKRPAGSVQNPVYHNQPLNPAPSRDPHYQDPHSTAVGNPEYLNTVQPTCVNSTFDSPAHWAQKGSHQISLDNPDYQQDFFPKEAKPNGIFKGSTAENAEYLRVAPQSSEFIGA
# Method: (§1) The activity of the compounds of the present invention against EGFR mutant enzymes was measured using the HTRF system purchased from Cisbio as follows. For an EGFR mutant enzyme, the EGFR del19 enzyme was a recombinant protein purchased from Carna Biosciences, and the EGFR A763_Y764insFHEA enzyme was a recombinant protein purchased from SignalChem, respectively.
# (§2) The composition of the assay buffer used for activity measurement was 50 mM tris-HCl pH 7.5, 100 mM NaCl, 7.5 mM MgCl2, 3 mM KCl, 0.01% tween 20, 0.1% BSA, and 1 mM DTT. An enzymatic reaction was performed using a peptide substrate labeled with ATP at a concentration of […] and biotin at a concentration of […]. The analysis of the inhibitory effect of the compounds on EGFR activity was performed according to the following method. • Component 1:4 μL of EGFR mutant enzyme • Component 2:2 μL of compound solution • Component 3:4 μL of ATP and a biotin labeled peptide
# (§3) The enzyme reaction begins by first mixing component 1 and component 2 and then adding component 3 thereto. After the reaction at 37° C. for 2 hours, […] of a measurement solution consisting of streptavidin-XL665 and a europium-labeled anti-phosphotyrosine antibody purchased from Cisbio was added to the enzyme reaction solution and reacted at room temperature for 1 hour. Finally, the ratio of fluorescence values at 615 nm and 665 nm was measured using Perkin-Elmer's Envision instrument to calculate enzyme activity and confirm the inhibitory ability of the compounds. The measured values at 7 compound concentrations were analyzed using the Prism program (version 5.01, Graphpad Software, Inc.), and the IC50 (μM) values, which are measures of the compounds' inhibitory activity, were calculated.
# [2] = molecular target: EGFR A763_Y764insFHEA (Homo sapiens (Human), UniProt P00533, INS763FHEA); test: HTRF inhibitory activity against EGFR mutant enzyme (EGFR A763_Y764insFHEA)
# Chain of EGFR A763_Y764insFHEA (P00533 other isoform, or with tags, fused parts or gaps del 1-694/ins FHEA behind 763 limits assumed): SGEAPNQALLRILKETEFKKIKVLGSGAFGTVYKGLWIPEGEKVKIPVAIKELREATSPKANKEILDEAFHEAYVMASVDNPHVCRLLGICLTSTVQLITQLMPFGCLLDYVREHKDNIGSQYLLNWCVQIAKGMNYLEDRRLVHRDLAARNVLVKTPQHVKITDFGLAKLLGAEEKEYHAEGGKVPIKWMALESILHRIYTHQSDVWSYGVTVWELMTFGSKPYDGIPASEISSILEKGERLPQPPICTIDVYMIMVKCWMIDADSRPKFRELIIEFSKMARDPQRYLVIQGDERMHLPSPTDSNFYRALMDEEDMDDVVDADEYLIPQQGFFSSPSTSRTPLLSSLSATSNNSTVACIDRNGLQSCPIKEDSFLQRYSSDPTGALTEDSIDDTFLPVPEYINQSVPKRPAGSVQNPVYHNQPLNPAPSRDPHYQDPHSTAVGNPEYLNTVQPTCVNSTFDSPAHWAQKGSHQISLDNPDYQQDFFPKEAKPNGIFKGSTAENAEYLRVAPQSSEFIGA
# Method: as §1, §2, §3
# [3] = molecular target: HER2 A775_G776insYVMA (Homo sapiens (Human), UniProt P04626, INS775YVMA); test: HTRF inhibitory activity against HER2 mutant enzyme
# Chain of HER2 A775_G776insYVMA (P04626 other isoform, or with tags, fused parts or gaps del 1-675/ins YVMA behind 775 limits assumed): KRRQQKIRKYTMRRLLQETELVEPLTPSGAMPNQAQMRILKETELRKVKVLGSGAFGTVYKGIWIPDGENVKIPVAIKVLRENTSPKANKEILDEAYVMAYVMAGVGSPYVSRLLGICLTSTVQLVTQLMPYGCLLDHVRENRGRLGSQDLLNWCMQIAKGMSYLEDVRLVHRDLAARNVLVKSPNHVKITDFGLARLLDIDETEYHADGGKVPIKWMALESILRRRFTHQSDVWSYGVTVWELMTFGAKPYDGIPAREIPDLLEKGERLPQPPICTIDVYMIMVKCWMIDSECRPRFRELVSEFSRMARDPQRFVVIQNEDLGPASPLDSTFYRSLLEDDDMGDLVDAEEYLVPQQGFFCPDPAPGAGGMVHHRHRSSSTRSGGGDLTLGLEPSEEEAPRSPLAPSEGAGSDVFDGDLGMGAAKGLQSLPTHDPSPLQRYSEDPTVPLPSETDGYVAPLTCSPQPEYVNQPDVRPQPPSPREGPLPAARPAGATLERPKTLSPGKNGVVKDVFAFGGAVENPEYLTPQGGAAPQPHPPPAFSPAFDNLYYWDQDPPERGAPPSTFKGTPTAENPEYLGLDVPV
# Method: The activity of the compounds of the present invention against HER mutant enzymes was measured using the HTRF system purchased by Cisbio as follows. As a HER2 mutant enzyme, the HER2 A775_G776insYVMA mutant enzyme was used by purchasing a recombinant protein provided by Carna Biosciences.
# as §2, with “mM DTT. In addition thereto, the enzymatic reaction” for “mM DTT. An enzymatic reaction”, “of the activity inhibitory effect” for “of the inhibitory effect”, “compounds on HER2 A775_G776insYVMA mutation was performed” for “compounds on EGFR activity was performed”, “μL of HER2 A775_G776insYVMA mutant enzyme” for “μL of EGFR mutant enzyme”
# as §3, with “Finally, the ratio of fluorescence values at 615 nm and 665 nm was measured using Perkin-Elmer's Envision instrument to calculate enzyme activity and confirm the inhibitory ability of the compounds.” left out, “ability,” for “activity,”
SMILES,IC50 [1],IC50 [2],IC50 [3]
"C=CC(=O)Nc1cc(Nc2ncc(Cl)c(Nc3cccc(CC)c3NS(=O)(=O)CC)n2)c(OC)cc1N(C)CCN(C)C [Example 42, N-(5-((5-chloro-4-((3-ethyl-2-(ethylsulfonamido)phenyl)amino)pyrimidin-2-yl)amino)-2-((2-(dimethylamino)ethyl)(methyl)amino)-4-methoxyphenyl)acrylamide]",< 1 nM,< 1 nM,6 nM
"C=CC(=O)Nc1cc(Nc2ncc(Cl)c(Nc3cccc4c3N(S(=O)(=O)CC)CC4)n2)c(OC)cc1N(C)CCN1CCCC1 [Example 75, N-(5-((5-chloro-4-((1-(ethylsulfonyl)indolin-7-yl)amino)pyrimidin-2-yl)amino)-4-methoxy-2-(methyl(2-(pyrrolidin-1-yl)ethyl)amino)phenyl)acrylamide]",< 1 nM,< 1 nM,3 nM
"C=CC(=O)Nc1cc(Nc2ncc(Cl)c(Nc3cccc4c3N(S(C)(=O)=O)CC4)n2)c(OC)cc1OCCN1CCCCC1 [Example 78, N-(5-((5-chloro-4-((1-(methylsulfonyl)indolin-7-yl)amino)pyrimidin-2-yl)amino)-4-methoxy-2-(2-(piperidin-1-yl)ethoxy)phenyl)acrylamide]",< 1 nM,< 1 nM,3 nM
"C=CC(=O)Nc1cc(Nc2ncc(C(=O)OC)c(Nc3cccc4c3N(S(C)(=O)=O)CC4)n2)c(OC)cc1N(C)CCN(C)C [Example 60, methyl 2-((5-acrylamido-4-((2-(dimethylamino)ethyl)(methyl)amino)-2-methoxyphenyl)amino)-4-((1-(methylsulfonyl)indolin-7-yl)amino)pyrimidin-5-carboxylate]",< 1 nM,< 1 nM,10 nM
"COc1cc(N(C)CCN(C)C)c(NC(=O)/C=C/CN(C)C)cc1Nc1ncc(Cl)c(Nc2ccccc2NS(C)(=O)=O)n1 [Example 28, (E)-N-(5-((5-chloro-4-((2-(methylsulfonamido)phenyl)amino)pyrimidin-2-yl)amino)-2-((2-(dimethylamino)ethyl)(methyl)amino)-4-methoxyphenyl)-4-(dimethylamino)buten-2-amide]",< 1 nM,8 nM,70 nM
C=CC(=O)Nc1cc(Nc2ncc(Cl)c(Nc3ccc4nccnc4c3NS(C)(=O)=O)n2)c(OC)cc1N(C)CCN(C)C [Example 69],< 1 nM,< 1 nM,6 nM
"C=CC(=O)Nc1cc(Nc2ncc(Cl)c(Nc3ccc(C)c(C)c3NS(C)(=O)=O)n2)c(OC)cc1N(C)CCN(C)C [Example 44, N-(5-((5-chloro-4-((3,4-dimethyl-2-(methylsulfonamido)phenyl)amino)pyrimidin-2-yl)amino)-2-((2-(dimethylamino)ethyl)(methyl)amino)-4-methoxyphenyl)acrylamide]",< 1 nM,< 1 nM,6 nM
"COc1cc(N2CCOCC2)c(NC(=O)/C=C/CN(C)C)cc1Nc1ncc(Cl)c(Nc2ccccc2NS(C)(=O)=O)n1 [Example 26, (E)-N-(5-((5-chloro-4-((2-(methylsulfonamido)phenyl)amino)pyrimidin-2-yl)amino)-4-methoxy-2-morpholinophenyl)-4-(dimethylamino)buten-2-amide]",4 nM,200 nM,80 nM
"C=CC(=O)Nc1cc(Nc2ncc(Cl)c(Nc3cccc4c3N(S(=O)(=O)CC)CC4)n2)c(OC)cc1N(C)CCN1CCC1 [Example 81, N-(2-((2-(azetidin-1-yl)ethyl)(methyl)amino)-5-((5-chloro-4-((1-(ethylsulfonyl)indolin-7-yl)amino)pyrimidin-2-yl)amino)-4-methoxyphenyl)acrylamide]",< 1 nM,< 1 nM,< 1 nM
"C=CC(=O)Nc1cc(Nc2ncc(Cl)c(Nc3ccccc3N3CCCCS3(=O)=O)n2)c(OC)cc1N(C)CCN(C)C [Example 71, N-(5-((5-chloro-4-((2-(1,1-dioxido-1,2-thiazinan-2-yl)phenyl)amino)pyrimidin-2-yl)amino)-2-((2-(dimethylamino)ethyl)(methyl)amino)-4-methoxyphenyl)acrylamide]",< 1 nM,5 nM,61 nM
"C=C(F)C(=O)Nc1cc(Nc2ncc(Cl)c(Nc3cccc4c3N(S(C)(=O)=O)CCC4)n2)c(OC)cc1N(C)CCN(C)C [Example 54, N-(5-((5-chloro-4-((1-(methylsulfonyl)-1,2,3,4-tetrahydroquinolin-8-yl)amino)pyrimidin-2-yl)amino)-2-((2-(dimethylamino)ethyl)(methyl)amino)-4-methoxyphenyl)-2-fluoroacrylamide]",< 1 nM,< 1 nM,10 nM

# Further lines, results first:
IC50 [1],IC50 [2],IC50 [3],SMILES
2 nM,10 nM,140 nM,"C=CC(=O)Nc1cc(Nc2ncc(F)c(Nc3ccccc3NS(=O)(=O)CCC)n2)c(OC)cc1N(C)CCN(C)C [Example 13, N-(2-((2-(dimethylamino)ethyl)(methyl)amino)-5-((5-fluoro-4-((2-(propylsulfonamido)phenyl)amino)pyrimidin-2-yl)amino)-4-methoxyphenyl)acrylamide]"
< 1 nM,1 nM,20 nM,"C=CC(=O)Nc1cc(Nc2ncc(Cl)c(Nc3cccc(Cl)c3NS(C)(=O)=O)n2)c(OC)cc1N(C)CCN(C)C [Example 34, N-(5-((5-chloro-4-((3-chloro-2-(methylsulfonamido)phenyl)amino)pyrimidin-2-yl)amino)-2-((2-(dimethylamino)ethyl)(methyl)amino)-4-methoxyphenyl)acrylamide]"
< 1 nM,3 nM,34 nM,"C=CC(=O)Nc1cc(Nc2ncc(C)c(Nc3ccccc3NS(=O)(=O)CC)n2)c(OC)cc1N(C)CCN(C)C [Example 19, N-(2-((2-(dimethylamino)ethyl)(methyl)amino)-5-((4-((2-(ethylsulfonamido)phenyl)amino)-5-methylpyrimidin-2-yl)amino)-4-methoxyphenyl)acrylamide]"
10 nM,20 nM,920 nM,"C=CC(=O)Nc1cc(Nc2nccc(Nc3ccccc3NS(=O)(=O)CCC)n2)c(OC)cc1N(C)CCN(C)C [Example 8, N-(2-((2-(dimethylamino)ethyl)(methyl)amino)-4-methoxy-5-((4-((2-(propylsulfonamido)phenyl)amino)pyrimidin-2-yl)amino)phenyl)acrylamide]"
10 nM,20 nM,1100 nM,"C=CC(=O)Nc1cc(Nc2ncc(C)c(Nc3ccccc3NS(=O)(=O)c3ccc(C)cc3)n2)c(OC)cc1N(C)CCN(C)C [Example 17, N-(2-((2-(dimethylamino)ethyl)(methyl)amino)-4-methoxy-5-((5-methyl-4-((2-((4-methylphenyl)sulfonamido)phenyl)amino)pyrimidin-2-yl)amino)phenyl)acrylamide]"
< 1 nM,7 nM,110 nM,"C=CC(=O)Nc1cc(Nc2ncc(C)c(Nc3ccccc3NS(=O)(=O)CCC)n2)c(OC)cc1N(C)CCN(C)C [Example 18, N-(2-((2-(dimethylamino)ethyl)(methyl)amino)-4-methoxy-5-((5-methyl-4-((2-(propylsulfonamido)phenyl)amino)pyrimidin-2-yl)amino)phenyl)acrylamide]"
1 nM,2 nM,410 nM,"C=CC(=O)Nc1cc(Nc2ncc(F)c(Nc3ccccc3NS(=O)(=O)c3ccccc3)n2)c(OC)cc1N(C)CCN(C)C [Example 14, N-(2-((2-(dimethylamino)ethyl)(methyl)amino)-5-((5-fluoro-4-((2-(phenylsulfonamido)phenyl)amino)pyrimidin-2-yl)amino)-4-methoxyphenyl)acrylamide]"
